Laboratory results published in patent US4990613A, “(1R,5S,6S)-2-[(6,7-dih ydro-5H-pyrazolo[1,2-a][1,2,4]triazolium-6-yl)]thio-6-[R-1-hydroxyethyl]- 1-methyl-carbapenem-3-carboxylate and intermediate therefor” (Lederle (Japan), Ltd., priority 1987, dated 1991).
In brackets after ≈: the same amount, converted by molar mass. Where two headings read alike, the source gives them in different places.

Experiments:
[1] = tested on: Enterobacter cloacae GN 7467; assay: Antibacterial activity against clinically isolated β-lactamase producing strains; assay type: cell-based; conditions: Enterobacter cloacae, GN7467; cephalosporinase producing strain, 18 to 20 hours; read-out: MIC
Procedure: (§1) A solution of a cephalosporinase producing strain stored by Episome Research Institute, which was prepared by incubating the strain in a sensitivity test broth (STB; product of Nissui K.K.) for 18 hours, was diluted with a fresh STB solution to contain 10^5 cells per milliliter and the diluted solution was then inoculated as spots with a microplanter on a sensitivity disk agar-N (SDA; product of Nissui K.K.) containing a test compound. The disk agar was then incubated for 18 to 20 hours. A minimum inhibitory concentration was determined as a minimum concentration in which the test microorganism had no longer grown after a 18 to 20 hour incubation.

[2] = tested on: Enterobacter cloacae GN 7471; assay: as above; assay type: cell-based; conditions: Enterobacter cloacae, GN7471; cephalosporinase producing strain, 18 to 20 hours; read-out: MIC
Procedure: as §1

Escherichia coli No. 96 = assay: as above; assay type: cell-based; conditions: Escherichia coli, NO.96; cephalosporinase producing strain, 18 to 20 hours; read-out: MIC
Procedure: as §1

Proteus morganii GN 5407 = assay: as above; assay type: cell-based; conditions: Morganella morganii, GN5407
Procedure: as §1

Proteus vulgaris GN 76 = assay: as above; assay type: cell-based; conditions: Proteus vulgaris, GN76
Procedure: as §1

[3] = tested on: Providencia rettgeri GN 5284; assay: as above; assay type: cell-based; conditions: Providencia rettgeri, GN5284; cephalosporinase producing strain, 18 to 20 hours; read-out: MIC
Procedure: as §1

[4] = tested on: Pseudomonas aeruginosa GN 918; assay: as above; assay type: cell-based; conditions: Pseudomonas aeruginosa, GN918; cephalosporinase producing strain, 18 to 20 hours; read-out: MIC
Procedure: as §1

[5] = tested on: P. aeruginosa resistant strains; assay: Sensitivity test against clinical isolates, P. aeruginosa resistant strains; assay type: cell-based; conditions: 54 resistant strains
Procedure: It is noted here that the 54 strains have been chosen because there have been the strains in duplicate with the agents. ______________________________________ Ceftazidime (CAZ) (25 to 100 μg/ml) 21 strains Cefsulodine (CFS) (25 to >100 μg/ml) 23 strains Piperacilin (PIPC) (25 to >100 μg/ml) 15 strains Gentamycin (GM) (25 to >100 μg/ml) 21 strains Amikacin (AMK) (25 to >100 μg/ml) 26 strains Ofloxacin (OFLX) (25 to >100 μg/ml) 4 strains ______________________________________
A minimum inhibitory concentration (MIC) was determined in substantially the same manner as the test procedures II above using the 54 strains of P. aeruginosa having an anti-Pseudomonas resistance.

[6] = tested on: Swine Kidney Dehydropeptidase-I (DHP-I); assay: Hydrolysis activity against DHP-I enzyme substrate by late assay; assay type: in vitro ADME; conditions: final substrate concentration 100 μM, 10 minutes, pH 7.1
Procedure: (§2) The swine kidney (8 kg) was homogenized and an enzyme protein was allowed to precipitate. After a connective lipid was removed with acetone, the resultant material was made soluble by treatment with butanol and purified in the order by the ammonium sulfate fraction method, thereby producing DPH-I enzyme from a 75% ammonium sulfate fraction.
(§3) The DHP-I enzyme was then adjusted to give an enzyme concentration of 25 mg/10 ml (phosphate buffer, pH 7.1), and divided into 1 ml portions. The portions were frozen and stored at -40° C. or less until use.
(§4) As control compounds were employed glycyl dehydrophenylalanine (Gl-dh-Ph) and imipenem, and they were adjusted in situ each to give the concentration of 177 μM with the same sodium phosphate buffer solution.
To 1.2 ml of a 50 mM sodium phosphate buffer solution (substrate) containing 177 μM of each of Gh-dh-Ph and imipenem as the control compounds was added 0.2 ml of the DHP-I enzyme solution (25 mg/10 ml) prepared above in the final substrate concentration of 100 μM. The solution was then incubated at […] for 10 minutes. An initial velocity of hydrolysis of the substrate was measured from a decrease in absorbency at a particular λmax of each of the substrates.
A blank test was conducted in substantially the same manner as above by adding 0.2 ml of the sodium phosphate buffer solution (pH 7.1) to 1.2 ml of the above substrate.

[7] = tested on: Swine Kidney Dehydropeptidase-I (DHP-I); assay: Stability of test compounds against DHP-I by HPLC; assay type: in vitro ADME
Procedure: as §2, §3
As a test compound was used the compound (15) obtained in Example 6 that follows.
The test compounds was adjusted in situ to give the concentration of […] with a 50 mM sodium phosphate buffer solution (pH=7.1).
as §4
The test compound according to the present invention and the control compounds have been treated in substantially the same manner as (1) above. The incubation, however, was conducted at 37° C. for 4.5 hours or for 24 hours. A degree of the hydrolysis of the compounds each after the test periods of time was measured by the HPLC method.

[8] = tested on: Staphylococcus aureus Terajima; assay: Antibacterial test, agar plate dilution method; conditions: Staphylococcus aureus, 18 h
[9] = tested on: Escherichia coli NIHJ JC-2; assay: Antibacterial test, agar plate dilution method; conditions: Escherichia coli, NIHJJC2, 18 h
Enterobacter cloacae 963 = assay: Antibacterial test, agar plate dilution method; conditions: Enterobacter cloacae, 963, 18 h
[10] = tested on: Klebsiella pneumoniae PCI-602; assay: Antibacterial test, agar plate dilution method; conditions: Klebsiella pneumoniae, PCI602, 18 h
[11] = tested on: Salmonella schottmuelleri 8006; assay: Antibacterial test, agar plate dilution method; conditions: Salmonella, 8006, 18 h
[12] = tested on: Salmonella enteritidis G14; assay: Antibacterial test, agar plate dilution method; conditions: Salmonella enterica, ENTERITIDIS, 18 h
Proteus vulgaris HX-19 = assay: Antibacterial test, agar plate dilution method; conditions: Proteus vulgaris, HX19, 18 h
[13] = tested on: Pseudomonas aeruginosa NCTC 10490; assay: Antibacterial test, agar plate dilution method; conditions: Pseudomonas aeruginosa, NCTC10490, 18 h

Row | Compound | MIC (Escherichia coli No. 96) [µg/mL] | MIC [3] [µg/mL] | MIC [8] [µg/mL] | MIC [9] [µg/mL] | MIC (Enterobacter cloacae 963) [µg/mL] | MIC [10] [µg/mL] | MIC [11] [µg/mL] | MIC [12] [µg/mL] | MIC [13] [µg/mL] | further results
1 | C[C@@H](O)[C@H]1C(=O)N2C(C(=O)O)=C(SCCN=CN)C[C@H]12 [Imipenem] | 0.1 (≈ 0.334 µM) | 0.39 (≈ 1.3 µM) | < 0.006 | 0.1 (≈ 0.334 µM) | 0.2 (≈ 0.668 µM) | 0.39 (≈ 1.3 µM) | 0.78 (≈ 2.61 µM) | 0.78 (≈ 2.61 µM) | 0.78 (≈ 2.61 µM) | MIC [1]: 0.78 µg/mL (≈ 2.61 µM); MIC [2]: 0.2 µg/mL (≈ 0.668 µM); MIC (Proteus morganii GN 5407): 3.13 µg/mL (≈ 10.5 µM); MIC (Proteus vulgaris GN 76): 3.13 µg/mL (≈ 10.5 µM); MIC [4]: 0.78 µg/mL (≈ 2.61 µM); test microorganisms whose growth is inhibited ([5]; concentration of 12.5 μg/ml): all the test microorganism; test microorganisms whose growth is inhibited ([5]; concentration of […]): approximately 98%; initial velocity of hydrolysis against DHP-I [6]: 0.56 µM/min; Degree of hydrolysis by DHP-I ([7]; 37° C. 4.5 hours, substrate concentration 100 μM, HPLC): 77.6 µM; Degree of hydrolysis by DHP-I (in words) ([7]; after 24 hours at 37° C., footnote * of Table 3): imipenem has been decomposed and nothing remained was detected; MIC (Proteus vulgaris HX-19): 0.78 µg/mL (≈ 2.61 µM)
2 | Cc1nnc(SCC2=C(C(=O)O)N3C(=O)[C@@H](NC(=O)Cn4cnnn4)[C@H]3SC2)s1 [CEZ] | 0.78 (≈ 1.72 µM) | 0.2 (≈ 0.44 µM) | 0.05 (≈ 0.11 µM) | 0.78 (≈ 1.72 µM) | > 100 | 0.78 (≈ 1.72 µM) | 0.78 (≈ 1.72 µM) | 0.78 (≈ 1.72 µM) | > 100 | MIC (Proteus morganii GN 5407; cephalosporinase producing strain, 18 to 20 hours, read-out: MIC): 0.39 µg/mL (≈ 0.858 µM)
